Measurements reported in patent publication US8466203B2, “Method of stabilizing human eye tissue by reaction with nitrite and related agents such as nitro compounds” (priority 2006, dated 2013).
Where “and” joins values, the source holds several entries; their conditions need not be identical. Equal values may be shown once. Read-outs that look alike come from different tables or passages of the source.

Tests used:
porcine sclera = assay: Thermal shrinkage temperature analysis of porcine scleral strips; settings: for T50 (temperature at 50% of maximal shrinkage) / T50 Δ (change in 50% shrinkage temperature compared to control) / Ti (temperature at 1% absolute shrinkage): pH 7.4, 37° C., 96 hrs
Source text: Thermal shrinkage temperature or denaturation temperature (Ts) is a technique that has been used for decades in studying collagen cross-linking. As collagen fibers are progressively heated, a threshold temperature is reached at which point disruption of hydrogen bonding in the collagen molecule triple helix occurs, resulting in unwinding of the triple helices. The denaturation of tertiary protein structure results in a rapid shrinkage of the tissue of up to 80%. This phenomenon can be expressed in various ways including temperature of onset of tissue shrinkage, temperature at maximal tissue shrinkage, and temperature at 50% of maximal tissue shrinkage, for example. In addition, differential scanning calorimetry (DSC) is related to thermal shrinkage temperature analysis and is widely used to evaluate biomaterial cross-linking. Thermal shrinkage temperature is essentially a simplified version of DSC and can be used effectively to screen the cross-linking efficacy of compounds. For the purposes of this study, the onset of shrinkage is considered the Ts and the temperature at which 50% of maximal shrinkage has occurred is T50. Graphs depicting the relationship between degree of shrinkage and temperature indicate differences in degree of cross-linking between groups. Thus, stabilization of collagen fiber structures through non-enzymatic cross-linking increases Ts and T50.
This system can perform multiple Ts assays in succession, allowing rapid screening of a number of potential cross-linking agents and conditions. […] Inlet and outlet fittings allow for constant circulation of heated water which is modulated by a digitally controlled water bath equipped with a water pump. The entire box is placed on a digital photo scanner connected to a Windows based computer. Beginning at 50° C. the temperature is raised at a rate of 1° C./min and serial scans are taken at every degree increase in temperature up to 80° C. […] As the tissue shrinks, the images are captured by the scanner. The image files are later analyzed for 2-dimensional area using NIH Image J software and % shrinkage calculations are made using Microsoft Excel for graphing purposes. This method obviates the need for removal of tissue pieces from the water bath with manual micrometer measurements as described by the UVR group (Spoerl, E., et al., 2004).
Using this simple, reproducible assay enables the screening of a number of compounds for cross-linking efficacy. This is first performed using porcine eyes because of their low cost. Follow up studies can be performed using human eyes. Porcine eyes are obtained within 6 hrs of sacrifice (Hatfield Meat Packing, Inc., Hatfield Pa.). Eyes showing clear corneas and intact epithelia are chosen for study. […] Each strip is then cross-linked using a nitro agent. […] Opthalmol. 1999; 117:166-169) for 24-96 hrs. Following incubation, the samples are evaluated for degree of cross-linking using the Ts assay as described above.
From the data, Ts curves are generated for each compound and condition studied. Each data point is the average of 3 independent samples.

[1] = tested on: primary bovine corneal endothelial cells; settings: for Cytotoxic threshold (using trypan blue): 48 hrs exposure
porcine cornea = assay: Gross stiffness of porcine corneal strips handled with a forceps; settings: 100 mM, pH 7.4, 37° C., 48 hrs
Procedure: Fresh porcine corneal strips and corneoscleral complexes obtained within 6 hrs of sacrifice and incubated at 37° C. in buffered solutions (pH 7.4) containing 20% Dextran (T500) and either 100 mM NaNO2 or 100 mM of one each of the specified β-nitro alcohols
These images were taken from tissues cross-linked with nitrite and the β-nitro alcohols 2-nitroethanol, 2-nitro-1-propanol, and […], for 48 hrs. […] Fresh porcine corneal strips and corneoscleral complexes were obtained within 6 hrs of sacrifice and incubated at 37° C. in buffered solutions (pH 7.4) containing 20% Dextran (T500) and either 100 mM NaNO2 or 100 mM of one each of the β-nitro alcohols. After 48 hrs, the following images were obtained. […] FIGS. 13 (B and D)

## O=[N+]([O-])CCO [2-nitroethanol]
Porcine sclera; 1 mM reagent
  T50 (temperature at 50% of maximal shrinkage): 65.7 °C
  T50 Δ (change in 50% shrinkage temperature compared to control): 0.4 °C
  Ti (temperature at 1% absolute shrinkage): 62.9 °C
Porcine sclera; 1 mM serially applied over 10 days
  Ts shift: 2-3 °C
Porcine sclera; 1 mM, 4 days (96 hrs) without replacing the incubation solution
  shift in Ts (in words): did not produce a shift in Ts
Porcine sclera; 1 mM, incubation solution exchanged daily, 6 days
  T50 shift: 1.3 °C
Porcine sclera; 1 mM, incubation solution exchanged daily, 10 days
  T50 shift: 3.2 °C
Porcine sclera; 1 mM, incubation solution exchanged daily, 14 days
  T50 shift: 5.4 °C and 5.6 °C
Porcine sclera; 10 mM reagent
  T50 (temperature at 50% of maximal shrinkage): 69.8 °C
  T50 Δ (change in 50% shrinkage temperature compared to control): 4.5 °C
  Ti (temperature at 1% absolute shrinkage): 67.2 °C
Porcine sclera; 100 mM
  maximal increase of Ts: 8 °C
Porcine sclera; 100 mM reagent
  T50 (temperature at 50% of maximal shrinkage): 73.7 °C
  Ti (temperature at 1% absolute shrinkage): 70.7 °C
Porcine sclera; 100 mM, 24 hrs of incubation
  T50 shift: 1.4 °C
Porcine sclera; 100 mM, 48 hrs of incubation
  T50 shift: 2.4 °C
Porcine sclera; 100 mM, 72 hrs of incubation
  T50 shift: 5.3 °C
Porcine sclera; equimolar urea (nitrous acid trapping agent)
  blocking of the cross-linking effect by equimolar urea: not blocked
[1]; 0.1 mM
  Cytotoxic threshold (using trypan blue): −
[1]; 0.5 mM
  Cytotoxic threshold (using trypan blue): −
[1]; 0.75 mM
  Cytotoxic threshold (using trypan blue): −
[1]; 1 mM
  Cytotoxic threshold (using trypan blue): −
[1]; 2 mM
  Cytotoxic threshold (using trypan blue): −
[1]; 3 mM
  Cytotoxic threshold (using trypan blue): +
[1]; 5 mM
  Cytotoxic threshold (using trypan blue): +
[1]; 7 mM
  Cytotoxic threshold (using trypan blue): +
[1]; 10 mM
  Cytotoxic threshold (using trypan blue): +
[1]; bovine corneal endothelial cells
  tolerable level: 0.0273%
[1]; bovine corneal endothelial cells, 48 hrs
  highest tolerated level: 2 mM and 3 mM
Porcine cornea
  stiffness change when handled with a forceps: dramatic stiffness change
